Assay results published in publication PMC4979471 (Cell Death Discovery, 2015).
Read-outs that look alike come from different tables or passages of the source.

Key:
Assay in all cases: Kinase selectivity, P33-radiolabeled assay
Format in all cases: biochemical
Details in all cases: 10 μM ATP
[1] = biological target: T1, HIPK3 (Homo sapiens, UniProt Q9H422)
T1 construct: purchased Reaction Biology Corp
Procedure, shortened: (§1)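 ATP at 10 μM; test article at 10 μM, single point, two replicates. Output is activity as % of DMSO.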

[2] = biological target: T2, PIM2 (Homo sapiens, UniProt Q9P1W9)
T2 construct: purchased Reaction Biology Corp
Procedure, shortened: as §1

[3] = biological target: T3, BMX/ETK (Homo sapiens, UniProt P51813)
T3 construct: purchased Reaction Biology Corp
T3 sequence (P51813 1-675): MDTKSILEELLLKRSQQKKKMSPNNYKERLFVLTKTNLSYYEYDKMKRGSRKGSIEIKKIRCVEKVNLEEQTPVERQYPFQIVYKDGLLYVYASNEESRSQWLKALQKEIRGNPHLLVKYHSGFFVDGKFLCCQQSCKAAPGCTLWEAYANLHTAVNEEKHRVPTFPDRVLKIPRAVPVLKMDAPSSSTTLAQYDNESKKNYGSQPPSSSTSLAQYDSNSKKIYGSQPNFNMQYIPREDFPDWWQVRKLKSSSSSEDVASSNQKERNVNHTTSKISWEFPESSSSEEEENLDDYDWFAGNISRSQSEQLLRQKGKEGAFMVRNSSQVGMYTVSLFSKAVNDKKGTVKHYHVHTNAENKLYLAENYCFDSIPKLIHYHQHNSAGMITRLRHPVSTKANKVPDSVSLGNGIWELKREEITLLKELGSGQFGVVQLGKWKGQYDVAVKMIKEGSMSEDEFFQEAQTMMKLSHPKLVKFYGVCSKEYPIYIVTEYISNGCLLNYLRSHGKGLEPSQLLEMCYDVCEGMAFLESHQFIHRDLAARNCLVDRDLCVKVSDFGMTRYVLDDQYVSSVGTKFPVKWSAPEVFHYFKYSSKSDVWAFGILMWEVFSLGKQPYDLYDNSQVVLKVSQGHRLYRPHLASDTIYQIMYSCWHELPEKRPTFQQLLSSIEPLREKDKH
Procedure, shortened: as §1

[4] = biological target: T4, EPHB4 (Homo sapiens, UniProt P54760)
T4 construct: purchased Reaction Biology Corp
T4 sequence (P54760 16-987): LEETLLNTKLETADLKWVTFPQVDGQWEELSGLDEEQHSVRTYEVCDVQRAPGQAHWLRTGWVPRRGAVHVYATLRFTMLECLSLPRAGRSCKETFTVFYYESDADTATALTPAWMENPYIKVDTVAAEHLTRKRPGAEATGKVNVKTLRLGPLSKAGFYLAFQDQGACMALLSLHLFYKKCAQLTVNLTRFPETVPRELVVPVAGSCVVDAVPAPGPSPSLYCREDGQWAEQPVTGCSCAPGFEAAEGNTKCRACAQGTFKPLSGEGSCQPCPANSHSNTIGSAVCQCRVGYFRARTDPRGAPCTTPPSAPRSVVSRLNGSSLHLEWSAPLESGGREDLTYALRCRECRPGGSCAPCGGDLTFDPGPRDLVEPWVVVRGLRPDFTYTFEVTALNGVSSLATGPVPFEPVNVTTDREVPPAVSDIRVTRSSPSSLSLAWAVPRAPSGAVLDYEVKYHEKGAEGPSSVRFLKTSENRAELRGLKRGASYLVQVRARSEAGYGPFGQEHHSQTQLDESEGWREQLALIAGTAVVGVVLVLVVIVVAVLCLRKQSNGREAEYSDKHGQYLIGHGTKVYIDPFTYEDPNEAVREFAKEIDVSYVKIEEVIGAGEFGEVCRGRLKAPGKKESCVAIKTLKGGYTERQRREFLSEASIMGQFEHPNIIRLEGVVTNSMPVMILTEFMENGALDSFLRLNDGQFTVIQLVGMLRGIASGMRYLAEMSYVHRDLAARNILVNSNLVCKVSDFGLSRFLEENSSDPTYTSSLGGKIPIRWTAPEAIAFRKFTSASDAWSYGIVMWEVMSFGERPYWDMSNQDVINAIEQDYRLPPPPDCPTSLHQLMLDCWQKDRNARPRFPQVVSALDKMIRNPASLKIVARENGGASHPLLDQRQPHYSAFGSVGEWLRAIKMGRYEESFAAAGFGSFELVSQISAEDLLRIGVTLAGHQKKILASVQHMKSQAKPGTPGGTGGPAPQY
Procedure, shortened: as §1

[5] = biological target: T5, ERK7/MAPK15 (Homo sapiens, UniProt Q8TD08)
T5 construct: purchased Reaction Biology Corp
T5 sequence (Q8TD08 1-544): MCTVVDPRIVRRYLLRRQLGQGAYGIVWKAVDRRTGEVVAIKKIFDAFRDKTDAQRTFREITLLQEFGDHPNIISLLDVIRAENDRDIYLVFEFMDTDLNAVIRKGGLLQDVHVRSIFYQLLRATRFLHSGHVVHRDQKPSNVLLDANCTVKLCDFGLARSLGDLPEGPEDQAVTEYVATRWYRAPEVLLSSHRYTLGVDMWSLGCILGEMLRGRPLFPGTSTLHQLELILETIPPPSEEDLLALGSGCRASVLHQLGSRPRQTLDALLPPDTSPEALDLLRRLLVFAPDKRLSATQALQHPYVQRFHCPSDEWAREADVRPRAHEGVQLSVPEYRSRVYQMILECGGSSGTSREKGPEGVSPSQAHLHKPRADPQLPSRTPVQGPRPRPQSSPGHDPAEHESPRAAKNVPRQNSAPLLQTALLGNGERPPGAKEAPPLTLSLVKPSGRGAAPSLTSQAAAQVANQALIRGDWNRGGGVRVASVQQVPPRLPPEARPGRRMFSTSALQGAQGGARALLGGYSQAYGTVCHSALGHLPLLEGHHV
Procedure, shortened: as §1

[6] = biological target: T6, MRCKb/CDC42BPB (Homo sapiens, UniProt Q9Y5S2)
T6 construct: purchased Reaction Biology Corp
Procedure, shortened: as §1

[7] = biological target: T7, YES/YES1 (Homo sapiens, UniProt P07947)
T7 construct: purchased Reaction Biology Corp
Procedure, shortened: as §1

[8] = biological target: T8, TRKC (Homo sapiens, UniProt Q16288)
T8 construct: purchased Reaction Biology Corp
Procedure, shortened: as §1

[9] = read-out: % Enzyme Activity (relative to DMSO controls) AVG
[10] = read-out: % Enzyme Activity (relative to DMSO controls) Data 1
[11] = read-out: % Enzyme Activity (relative to DMSO controls) Data 2

T8 sequence (Q16288 32-839): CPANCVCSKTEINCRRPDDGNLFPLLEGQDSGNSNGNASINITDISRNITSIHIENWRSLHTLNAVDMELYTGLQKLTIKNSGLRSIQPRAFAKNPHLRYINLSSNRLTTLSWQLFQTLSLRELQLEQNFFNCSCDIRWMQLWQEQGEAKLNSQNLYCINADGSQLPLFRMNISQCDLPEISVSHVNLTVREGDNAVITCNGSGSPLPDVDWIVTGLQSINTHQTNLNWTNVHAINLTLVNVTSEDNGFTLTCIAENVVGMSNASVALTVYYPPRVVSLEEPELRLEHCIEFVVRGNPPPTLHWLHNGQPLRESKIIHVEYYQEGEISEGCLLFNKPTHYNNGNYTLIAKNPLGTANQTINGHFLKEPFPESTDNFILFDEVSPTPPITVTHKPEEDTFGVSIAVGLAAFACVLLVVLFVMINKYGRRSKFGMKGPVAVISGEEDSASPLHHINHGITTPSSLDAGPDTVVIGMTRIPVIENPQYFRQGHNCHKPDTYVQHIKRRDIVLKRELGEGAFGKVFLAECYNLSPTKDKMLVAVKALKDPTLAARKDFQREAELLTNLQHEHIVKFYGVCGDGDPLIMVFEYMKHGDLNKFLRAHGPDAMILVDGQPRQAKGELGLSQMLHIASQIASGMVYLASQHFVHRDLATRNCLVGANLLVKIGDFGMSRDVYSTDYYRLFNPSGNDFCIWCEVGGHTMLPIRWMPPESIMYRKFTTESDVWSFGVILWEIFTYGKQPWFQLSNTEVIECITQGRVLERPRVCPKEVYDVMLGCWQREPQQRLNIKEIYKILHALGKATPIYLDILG
T2 sequence (Q9P1W9 whole entry): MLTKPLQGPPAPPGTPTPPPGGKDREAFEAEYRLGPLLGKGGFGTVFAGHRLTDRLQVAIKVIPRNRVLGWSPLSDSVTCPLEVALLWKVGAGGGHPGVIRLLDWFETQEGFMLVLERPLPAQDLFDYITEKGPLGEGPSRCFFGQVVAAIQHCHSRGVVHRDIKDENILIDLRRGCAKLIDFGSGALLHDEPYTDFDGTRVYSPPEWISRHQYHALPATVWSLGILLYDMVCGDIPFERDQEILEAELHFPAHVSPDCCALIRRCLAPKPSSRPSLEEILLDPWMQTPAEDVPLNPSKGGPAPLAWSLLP
T7 sequence (P07947 whole entry): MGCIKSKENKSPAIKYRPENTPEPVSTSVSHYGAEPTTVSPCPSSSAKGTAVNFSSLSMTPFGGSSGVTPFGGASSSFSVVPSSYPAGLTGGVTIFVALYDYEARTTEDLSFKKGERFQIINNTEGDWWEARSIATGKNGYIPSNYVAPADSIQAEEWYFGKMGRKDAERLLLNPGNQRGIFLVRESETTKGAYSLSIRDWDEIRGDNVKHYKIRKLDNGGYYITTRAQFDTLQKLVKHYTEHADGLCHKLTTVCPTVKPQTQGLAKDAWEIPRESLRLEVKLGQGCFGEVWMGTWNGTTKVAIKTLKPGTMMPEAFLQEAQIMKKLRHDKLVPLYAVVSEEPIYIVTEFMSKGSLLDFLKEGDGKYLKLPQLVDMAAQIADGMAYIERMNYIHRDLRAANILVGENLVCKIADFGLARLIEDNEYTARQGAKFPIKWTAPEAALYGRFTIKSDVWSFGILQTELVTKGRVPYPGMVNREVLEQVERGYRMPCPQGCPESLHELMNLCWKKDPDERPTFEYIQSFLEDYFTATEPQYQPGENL
T1 sequence (Q9H422 whole entry): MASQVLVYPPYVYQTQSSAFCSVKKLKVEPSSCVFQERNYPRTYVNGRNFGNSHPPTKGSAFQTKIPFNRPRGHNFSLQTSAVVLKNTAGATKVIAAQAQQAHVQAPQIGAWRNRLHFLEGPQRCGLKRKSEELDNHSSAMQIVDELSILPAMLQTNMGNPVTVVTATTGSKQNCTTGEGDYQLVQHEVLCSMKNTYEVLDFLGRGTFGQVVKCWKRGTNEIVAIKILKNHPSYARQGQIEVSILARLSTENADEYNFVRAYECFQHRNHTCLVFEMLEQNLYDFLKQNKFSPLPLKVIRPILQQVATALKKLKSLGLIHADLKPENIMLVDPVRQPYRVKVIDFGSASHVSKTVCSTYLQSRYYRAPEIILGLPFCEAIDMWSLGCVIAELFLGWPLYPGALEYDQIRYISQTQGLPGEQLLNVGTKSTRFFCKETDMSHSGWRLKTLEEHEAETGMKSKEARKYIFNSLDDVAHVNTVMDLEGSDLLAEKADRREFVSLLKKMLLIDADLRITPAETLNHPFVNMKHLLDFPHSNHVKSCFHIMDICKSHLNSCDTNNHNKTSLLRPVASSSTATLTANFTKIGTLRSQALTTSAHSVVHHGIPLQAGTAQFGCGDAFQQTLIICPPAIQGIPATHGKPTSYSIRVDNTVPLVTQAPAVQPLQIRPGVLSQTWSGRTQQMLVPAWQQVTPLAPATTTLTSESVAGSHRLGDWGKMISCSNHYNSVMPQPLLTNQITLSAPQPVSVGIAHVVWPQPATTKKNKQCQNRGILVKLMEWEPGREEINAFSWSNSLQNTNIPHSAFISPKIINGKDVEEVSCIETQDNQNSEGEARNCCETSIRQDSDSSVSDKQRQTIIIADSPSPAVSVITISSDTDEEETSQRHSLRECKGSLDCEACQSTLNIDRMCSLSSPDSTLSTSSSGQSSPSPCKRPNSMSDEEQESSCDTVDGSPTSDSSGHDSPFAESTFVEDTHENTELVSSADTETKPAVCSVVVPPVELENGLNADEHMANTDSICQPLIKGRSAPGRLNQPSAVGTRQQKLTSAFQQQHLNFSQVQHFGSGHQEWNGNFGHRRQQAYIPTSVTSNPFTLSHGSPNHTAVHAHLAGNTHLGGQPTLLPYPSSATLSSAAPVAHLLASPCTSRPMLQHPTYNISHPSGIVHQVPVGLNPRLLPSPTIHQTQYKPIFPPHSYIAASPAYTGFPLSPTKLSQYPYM
T6 sequence (Q9Y5S2 whole entry): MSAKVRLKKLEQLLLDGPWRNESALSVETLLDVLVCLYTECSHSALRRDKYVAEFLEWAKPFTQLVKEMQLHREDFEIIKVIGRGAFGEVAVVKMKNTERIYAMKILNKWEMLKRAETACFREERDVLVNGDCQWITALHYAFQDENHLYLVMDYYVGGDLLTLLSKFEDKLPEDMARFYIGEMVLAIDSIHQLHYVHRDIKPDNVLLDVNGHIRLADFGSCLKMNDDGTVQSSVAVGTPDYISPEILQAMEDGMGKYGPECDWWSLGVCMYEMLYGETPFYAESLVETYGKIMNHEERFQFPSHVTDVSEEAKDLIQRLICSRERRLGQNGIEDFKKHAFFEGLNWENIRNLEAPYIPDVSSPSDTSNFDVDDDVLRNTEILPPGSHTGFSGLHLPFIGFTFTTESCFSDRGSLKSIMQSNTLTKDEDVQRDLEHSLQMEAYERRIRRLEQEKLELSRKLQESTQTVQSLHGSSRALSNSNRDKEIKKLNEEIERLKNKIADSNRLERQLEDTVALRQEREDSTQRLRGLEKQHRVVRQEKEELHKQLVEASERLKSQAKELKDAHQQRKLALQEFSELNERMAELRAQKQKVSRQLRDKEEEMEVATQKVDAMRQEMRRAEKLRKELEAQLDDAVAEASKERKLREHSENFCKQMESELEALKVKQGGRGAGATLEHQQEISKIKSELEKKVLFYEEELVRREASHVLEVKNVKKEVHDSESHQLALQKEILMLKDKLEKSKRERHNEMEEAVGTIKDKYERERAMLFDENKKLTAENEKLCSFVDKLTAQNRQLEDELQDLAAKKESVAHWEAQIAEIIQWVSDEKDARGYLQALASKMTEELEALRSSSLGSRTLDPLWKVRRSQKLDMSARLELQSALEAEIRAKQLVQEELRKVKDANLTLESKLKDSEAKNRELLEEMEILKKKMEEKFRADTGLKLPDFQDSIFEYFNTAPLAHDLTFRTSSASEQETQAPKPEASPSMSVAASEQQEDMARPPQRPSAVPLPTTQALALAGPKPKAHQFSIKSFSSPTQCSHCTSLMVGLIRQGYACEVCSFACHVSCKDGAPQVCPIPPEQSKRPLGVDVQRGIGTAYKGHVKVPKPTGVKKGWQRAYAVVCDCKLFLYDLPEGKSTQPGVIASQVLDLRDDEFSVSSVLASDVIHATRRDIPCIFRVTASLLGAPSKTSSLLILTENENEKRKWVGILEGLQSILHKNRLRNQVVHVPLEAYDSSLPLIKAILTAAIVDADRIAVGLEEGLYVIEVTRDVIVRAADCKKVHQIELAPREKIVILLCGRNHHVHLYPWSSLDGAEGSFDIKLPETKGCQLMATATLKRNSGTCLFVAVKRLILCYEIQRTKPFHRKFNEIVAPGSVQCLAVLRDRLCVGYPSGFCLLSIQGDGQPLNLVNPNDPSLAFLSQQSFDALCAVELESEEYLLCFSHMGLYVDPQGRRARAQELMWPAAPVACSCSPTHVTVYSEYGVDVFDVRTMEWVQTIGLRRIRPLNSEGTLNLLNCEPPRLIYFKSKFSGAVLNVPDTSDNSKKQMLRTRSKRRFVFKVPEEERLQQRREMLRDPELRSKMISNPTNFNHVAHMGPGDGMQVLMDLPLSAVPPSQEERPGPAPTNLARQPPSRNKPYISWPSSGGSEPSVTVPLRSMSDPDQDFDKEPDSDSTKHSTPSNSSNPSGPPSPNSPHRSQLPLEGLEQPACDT

In the case of `CC(C)(C)C(=O)N1N=CC[C@H]1c1ccccc1` [GSK′963], the remaining activity at 10 µM [1, 9] is reported as 100%, the remaining activity at 10 µM [1, 10] is reported as 100% and the remaining activity at 10 µM [1, 11] is reported as 101%. It also gave a remaining activity at 10 µM [2, 9] of 115%, a remaining activity at 10 µM [2, 10] of 112% and a remaining activity at 10 µM [2, 11] of 118%. The remaining activity at 10 µM [3, 9] was 99.9%, the remaining activity at 10 µM [3, 10] was 94.5% and the remaining activity at 10 µM [3, 11] was 105%. It also gave a remaining activity at 10 µM [4, 9] of 101%, a remaining activity at 10 µM [4, 10] of 100% and a remaining activity at 10 µM [4, 11] of 101%. It also gave a remaining activity at 10 µM [5, 9] of 112%, a remaining activity at 10 µM [5, 10] of 113% and a remaining activity at 10 µM [5, 11] of 111%. The remaining activity at 10 µM [6, 9] was 106%, the remaining activity at 10 µM [6, 10] was 109% and the remaining activity at 10 µM [6, 11] was 102%. It also gave a remaining activity at 10 µM [7, 9] of 88.2%, a remaining activity at 10 µM [7, 10] of 88.7% and a remaining activity at 10 µM [7, 11] of 87.8%. For the same molecule, the remaining activity at 10 µM [8, 9] was 99.2%, the remaining activity at 10 µM [8, 10] was 100% and the remaining activity at 10 µM [8, 11] was 98%.
